Measured values reported in paper PMC6560211, “ApoAI-derived peptide increases glucose tolerance and prevents formation of atherosclerosis in mice” (Diabetologia, 2019).
No end group written: not given here.

What was measured:
[1] = Peptide solubility by HPLC; type: physicochemical; settings: reconstituted RG54 peptide; assayed using HPLC
Procedure: Peptide (lyophilised powder) produced by Red Glead (Lund, Sweden) was reconstituted in Milli-Q water and then either used directly or mixed in a 1:1 ratio with 6 mol/l guanidine HCl in 2× PBS to give a monodisperse solution, followed by desalting using a column equilibrated with PBS, pH 7.4, using ÄKTAxpress fast protein LC (GE Healthcare, Uppsala, Sweden). Peptide integrity was analysed using circular dichroism spectroscopy. Peptide solubility was assayed at Red Glead using HPLC. Peptide stability in physiologic buffer or blood plasma (human or mouse) over 2 h was assayed at the Science for Life Laboratory (Uppsala, Sweden). For detailed methods, please refer to the electronic supplementary material (ESM) Methods.
The peptide RG54 was synthesised with natural amino acids and then modified with an acetylation cap on the N-terminus in order to reduce the susceptibility for proteolytic degradation by […] (ESM Fig. 3a). […] Peptide integrity following the denaturation/refolding procedure was confirmed using gel electrophoresis and circular dichroism spectroscopy analyses (ESM Fig. 3d,e) and by peptide stability assays (buffer or plasma) (ESM Fig. 3f).

Apoe−/− mice = assay: Atherosclerosis model, western diet; type: in vivo, mouse; settings: female Apoe−/− mice, i.p. three times a week for 6 weeks, RG54 12 mg/kg, ApoA-I 14 mg/kg, liraglutide 0.3 mg/kg, Oil Red O, n=9, vs NaCl
Text: Female Apoe^−/− mice (002052, Jackson Laboratory, Bar Harbor, ME, USA) at 12 weeks of age were acclimatised for 1 week, then changed to the RD western diet (D12079B) and injected i.p. three times per week for 6 weeks with treatments as indicated in ESM Fig. 1. At the end of the experimental period, the mice were euthanised and whole aortas were collected, fixed and stained for analysis. See ESM Methods for more details.
Apoe^−/− mice, which develop aortic atherosclerosis, were used to test if RG54 reduces the formation of atherosclerotic plaques in vivo. Apoe^−/− mice were obtained at 12 weeks of age and acclimatised for 1 week, after which baseline body weights, dual-energy x-ray absorptiometry body scans and serum samples were collected. […] Serum lipid profiles were measured at the start and end of the experimental period (ESM Fig. 5).
Fig. 2 Effect of ApoA-I or RG54 treatment on early, low-burden atherosclerotic lesion development in Apoe^−/− mice. […] (a) Body weight was measured weekly (n=9). […] (d–f) After euthanasia the aortic arch and abdominal aorta were removed, fixed and prepared en face, then atherosclerotic plaques were stained using Oil Red O. Representative aorta images (d) shown as raw images and images analysed for Oil Red O stained areas. […] Stained areas were then quantified to give the total plaque area (e) and total plaques per aorta (f) (n=9). […]

Ac-AEYHAKATEHLSTLSEKAKPALEDLRQGLLPVLESFKVSFLSALEEYTKKLNTQ [RG54]
solubility [1]: > 3000 µg/mL | number of plaques per mouse (Apoe−/− mice): significantly reduced | total plaque area (percentage of the aortic surface) (Apoe−/− mice): significantly reduced
